Measured values from ChEMBL document CHEMBL1127015, “Centrally acting serotonergic and dopaminergic agents. 1. Synthesis and structure-activity relationships of 2,3,3a,4,5,9b-hexahydro-1H-benz[e]indole derivatives” (J Med Chem, 1993).
Several values for one entry are separate records, joined by “and”; a condition that tells them apart may be missing. Identical values can stand only once.

Legend:
D(2) dopamine receptor [1] = molecular target: T1, D(2) dopamine receptor (Rattus norvegicus, UniProt P61169); assay: Inhibitory concentration against [3H]raclopride-labeled dopamine receptor D2 in rat striatum; type: tissue-based
T1 sequence (P61169 whole entry): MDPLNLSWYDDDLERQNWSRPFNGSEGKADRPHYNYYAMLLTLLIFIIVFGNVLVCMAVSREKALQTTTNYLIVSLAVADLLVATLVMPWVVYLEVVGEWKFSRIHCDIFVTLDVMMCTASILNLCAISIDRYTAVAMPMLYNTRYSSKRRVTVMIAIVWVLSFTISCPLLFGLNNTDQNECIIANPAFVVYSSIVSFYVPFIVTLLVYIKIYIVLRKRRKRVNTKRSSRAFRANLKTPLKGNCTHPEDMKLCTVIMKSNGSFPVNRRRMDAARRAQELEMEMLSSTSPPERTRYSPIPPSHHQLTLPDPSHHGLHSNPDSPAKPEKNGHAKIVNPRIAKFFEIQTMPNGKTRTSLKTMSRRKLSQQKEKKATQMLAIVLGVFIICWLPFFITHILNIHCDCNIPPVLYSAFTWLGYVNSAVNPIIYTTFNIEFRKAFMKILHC

Mus musculus [2] = assay: Antagonism of apomorphine in reserpinized mice when a dose of 4 micro mol/kg is administered intraperitoneally; type: functional
Mus musculus [3] = assay: Antagonism of apomorphine for 0-10 minutes in reserpinized mice when a dose of 4 micro mol/kg is administered intraperitoneally; type: functional
Mus musculus [4] = assay: Antagonism of apomorphine effects for 10-20 minutes in reserpinized mice following 0.4 umol/kg i.p.; type: functional
Mus musculus [5] = assay: Ability to stimulate dopaminergic systems by effect on locomotor activity in reserpinized mice when a dose of 4 micro mol/kg is administered intraperitoneally; type: functional
Mus musculus [6] = assay: Antagonism of apomorphine effects for 0-10 minutes in reserpinized mice following 0.4 umol/kg i.p.; type: functional; set-up: unit not given beside the values
Mus musculus [7] = assay: Increase in locomotor activity in reserpinized mice following 0.4 umol/kg i.p.; type: functional
Mus musculus [8] = assay: Antagonism of apomorphine for 10-20 minutes in reserpinized mice when a dose of 4 micro mol/kg is administered intraperitoneally; type: functional
Mus musculus [9] = assay: Antagonism of apomorphine effects in reserpinized mice following 0.4 umol/kg i.p.; type: functional
D(2) dopamine receptor [10] = molecular target: T1, D(2) dopamine receptor; assay: Compound was evaluated for the binding affinity against [3H]U-86,170-labeled dopamine receptor D2 in cloned CHO cells; type: cell-based
Mus musculus [11] = assay: Antagonism of apomorphine for 0-10 minutes in reserpinized mice when a dose of 0.4 micro mol/kg is administered intraperitoneally (*,p<0.05); type: functional
Felis catus [12] = assay: Maximum decrease of arterial blood pressure at sympathetic nerve activity (SND) in anesthetized cat has been observed following 1 mg/kg dose; type: functional; set-up: scale not given: the % may be the effect or the level left
Felis catus [13] = assay: Maximum decrease of sympathetic nerve activity (SND) in anesthetized cat; type: functional; set-up: scale not given: the % may be the effect or the level left
Mus musculus [14] = assay: Antagonism of apomorphine in reserpinized mice when a dose of 3.6 micro mol/kg is administered intraperitoneally; type: functional
Mus musculus [15] = assay: Antagonism of apomorphine in reserpinized mice when a dose of 36 micro mol/kg is administered intraperitoneally; type: functional
Mus musculus [16] = assay: Maximum decrease in temperature when compound is administered subcutaneously; type: functional
Mus musculus [17] = assay: Antagonism of apomorphine for 10-20 minutes in reserpinized mice when a dose of 3.6 micro mol/kg is administered intraperitoneally; type: functional
Mus musculus [18] = assay: Antagonism of apomorphine for 0-10 minutes in reserpinized mice when a dose of 3.6 micro mol/kg is administered intraperitoneally; type: functional
Mus musculus [19] = assay: Antagonism of apomorphine for 0-10 minutes in reserpinized mice when a dose of 36 micro mol/kg is administered intraperitoneally; type: functional
Mus musculus [20] = assay: Ability to stimulate dopaminergic systems by effect on locomotor activity in reserpinized mice when a dose of 3.6 micro mol/kg is administered intraperitoneally; type: functional
Mus musculus [21] = assay: Ability to stimulate dopaminergic systems by effect on locomotor activity in reserpinized mice when a dose of 36 micro mol/kg is administered intraperitoneally; type: functional
Mus musculus [22] = assay: Antagonism of apomorphine for 10-20 minutes in reserpinized mice when a dose of 36 micro mol/kg is administered intraperitoneally; type: functional
Rattus norvegicus [23] = assay: Effect on the synthesis rates of dopamine (DOPA accumulation) in the rat ventral limbic brain region at 3.6 micro mol/kg; type: functional, Limbic system
Rattus norvegicus [24] = species on record: Rattus norvegicus; assay: Effect on the synthesis rates of serotonin (5-HTP accumulation) in the rat ventral limbic brain region at 3.6uMkg.; type: functional, Limbic system
Rattus norvegicus [25] = assay: Inhibition of firing rates of serotonergic neurons in the dorsal raphe nucleus by intravenous injection in rats; type: functional
Mus musculus [26] = assay: Effective dose on hypothermia in mouse when administered subcutaneously; type: functional; settings: sc
Mus musculus [27] = assay: Effective dose on hypothermia in mouse when administered through peroral route; type: functional; settings: po
Mus musculus [28] = assay: Maximum decrease in temperature when compound is administered through peroral route; type: functional
D(2) dopamine receptor [29] = molecular target: T2, D(2) dopamine receptor (Homo sapiens, UniProt P14416); assay: Intrinsic activity from GTP shift using membranes from CHO cells transfected with mammalian dopamine receptor D2.; type: cell membranes
T2 sequence (P14416 whole entry): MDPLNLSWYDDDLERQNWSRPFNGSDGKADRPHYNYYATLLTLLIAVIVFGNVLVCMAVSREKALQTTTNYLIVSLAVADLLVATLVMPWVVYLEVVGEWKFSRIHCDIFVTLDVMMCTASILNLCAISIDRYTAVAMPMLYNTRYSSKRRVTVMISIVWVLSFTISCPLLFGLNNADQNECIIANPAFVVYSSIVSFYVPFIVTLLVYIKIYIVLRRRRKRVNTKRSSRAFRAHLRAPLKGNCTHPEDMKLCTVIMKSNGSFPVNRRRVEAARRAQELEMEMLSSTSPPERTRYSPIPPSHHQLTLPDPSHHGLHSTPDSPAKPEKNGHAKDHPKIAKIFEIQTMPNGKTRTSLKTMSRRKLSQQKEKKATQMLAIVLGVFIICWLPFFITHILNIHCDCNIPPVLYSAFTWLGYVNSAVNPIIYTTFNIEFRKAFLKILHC

D(2) dopamine receptor [30] = molecular target: T2, D(2) dopamine receptor; assay: Binding affinity against [3H]U-86,170-labeled dopamine receptor D2 in cloned CHO cells; type: cell-based
Rattus norvegicus [31] = species on record: Rattus norvegicus; assay: Effect on the synthesis rates of serotonin (5-HTP accumulation) in the rat ventral limbic brain region at 3.6uMkg; type: functional, Limbic system
Mus musculus [32] = assay: Time of effect in the face-to-face behavioral assay in the mouse when a dose of 0.0 micro mol/kg is administered perorally; type: functional
Mus musculus [33] = assay: Time of effect in the face-to-face behavioral assay in the mouse when a dose of 0.4 micro mol/kg is administered perorally; type: functional
Mus musculus [34] = assay: Time of effect in the face-to-face behavioral assay in the mouse when a dose of 3.6 micro mol/kg is administered perorally; type: functional
Mus musculus [35] = assay: Time of effect in the isolation-induced aggression behavioral assay in the mouse when a dose of 11 micro mol/kg is administered perorally; type: functional
Mus musculus [36] = assay: Time of effect in the isolation-induced aggression behavioral assay in the mouse when a dose of 3.6 micro mol/kg is administered perorally; type: functional
Mus musculus [37] = assay: Time of effect in the isolation-induced aggression behavioral assay in the mouse when a dose of 36 micro mol/kg is administered perorally; type: functional
Mus musculus [38] = assay: Time of effect in the isolation-induced aggression behavioral assay in the mouse when a dose of 0.0 micro mol/kg is administered perorally; type: functional
Mus musculus [39] = assay: Time of effect in the face-to-face behavioral assay in the mouse when a dose of 36 micro mol/kg is administered perorally; type: functional
Rattus norvegicus [40] = assay: Inhibition of firing rates of dopaminergic neurons in the substantia nigra pars compacta by intravenous injection in rats.; type: functional; settings: Rattus norvegicus, Substantia nigra pars compacta, iv; read-out: ED50
Rattus norvegicus [41] = assay: Inhibition of firing rates of serotonergic neurons in the dorsal raphe nucleus by intravenous injection in rats.; type: functional

Row | SMILES | Locomotor activity (Mus musculus [4]) | Locomotor activity (Mus musculus [6]) | Locomotor activity (Mus musculus [7]) | Locomotor activity (Mus musculus [9]) | Control (Felis catus [12]) [%] | Control (Felis catus [13]) [%] | Locomotor activity (Mus musculus [14]) | Locomotor activity (Mus musculus [15]) | Max temperature decrease (Mus musculus [16]) | Locomotor activity (Mus musculus [17]) | Locomotor activity (Mus musculus [18]) | Locomotor activity (Mus musculus [19]) | Locomotor activity (Mus musculus [20]) | Locomotor activity (Mus musculus [21]) | Locomotor activity (Mus musculus [22]) | Control (Rattus norvegicus [24]) [%] | ED50 (Mus musculus [26]) [µmol/kg] | Intrinsic activity (D(2) dopamine receptor [29]) [%] | Ki (D(2) dopamine receptor [30]) [nM] | further results
1 | CCCN1CC[C@@H]2c3ccccc3CC[C@H]21 (racemic) | 61 | 41 | 22 | 55 |  |  |  |  |  |  |  |  |  |  |  |  |  |  |  | IC50 (D(2) dopamine receptor [1]): > 1000 nM; Locomotor activity (Mus musculus [2]): 48; Locomotor activity (Mus musculus [3]): 22; Locomotor activity (Mus musculus [5]): 15; Locomotor activity (Mus musculus [8]): 46
2 | CCCN1CC[C@H]2c3ccccc3CC[C@H]21 (racemic) | 76 |  | 15 | 128 |  |  |  |  |  |  |  |  |  |  |  |  |  |  |  | Ki (D(2) dopamine receptor [10]): 548 nM; Locomotor activity (Mus musculus [11]): 56
3 | C=CCN1CC[C@H]2c3c(cccc3OC)CC[C@H]21 (racemic) | 94 | 96 | 6 | 55 | 59 | 189 | 6 | 4 | 4.2 | 94 | 121 | 54 | 37 | 70 | 45 | -52 | 8.2 |  |  | Control (Rattus norvegicus [23]): 48%; ED50 (Rattus norvegicus [25]): 0.04 µmol/kg; ED50 (Mus musculus [27]): 101 µmol/kg; Max temperature decrease (Mus musculus [28]): 3.6
4 | C=CCN1CC[C@@H]2c3c(cccc3OC)CC[C@H]21 (racemic) | 65 | 65 | 36 | 140 |  |  | 30 | 5 | 4.5 | 57 | 65 | 40 | 11 | 48 | 32 | -28 | 40 | 0 | 8.5 | Control (Rattus norvegicus [31]): 158%
5 | C=CCN1CCC2c3c(cccc3OC)CC[C@H]21 (single isomer, unassigned; (-)) | 45 | 29 | 7 | 50 | 55 | 385 | 14 | 11 |  | 49 | 52 | 24 | 79 | 52 | 18 |  |  | 24 | 6.7 | Time (Mus musculus [32]): 1.2 s; Time (Mus musculus [33]): 0.9 s; Time (Mus musculus [34]): 1.3 s; Time (Mus musculus [35]): 40 s; Time (Mus musculus [36]): 85 s; Time (Mus musculus [37]): 236 s; Time (Mus musculus [38]): 18 s and 27 s; Time (Mus musculus [39]): 1.4 s; ED50 (Rattus norvegicus [40]): 0.04 µmol/kg; ED50 (Rattus norvegicus [41]): 0.007 µmol/kg
